Measurements published in patent US6160166A, “Phosphonated agents and their antiangiogenic and antitumorigenic use” (priority 1999, dated 2000).
pIC50: −log10 of the molar value.

Assays:
[1] = cited from earlier work
[2] = tested on: human dermal microvascular and porcine pulmonary artery endothelial cells; test: bFGF-stimulated and non-stimulated endothelial cell growth (total protein, total DNA); assay type: cell-based; conditions: 25 μM
Source text: Suramin is a highly charged molecule with six sulfonate groups that are ionized at physiologic pH.

[3] = tested on: chick chorioallantoic membrane (CAM); test: Chick egg chorioallantoic membrane (CAM) assay, 6-day, growing vessels: inhibition of angiogenesis; assay type: in vivo; conditions: for antiangiogenic activity relative to suramin: CAM assay / inhibition of angiogenesis, versus suramin; for inhibition of angiogenesis in the 6-day CAM, in words: rapidly growing vessels; for inhibition in vivo at 70 nmol: Gallus gallus, Tables 1 and 2, dose not given, Em = number of embryos, read-out: % Ih (Inhibition)
Source text: The purpose of this experiment was to test the ability of the phosphonic acid agents described above to inhibit angiogenesis. […]
(§1) Comparison of the inhibition of angiogenesis by 70 nmol of
(§2) suramin or a equimolar amount of a phosphonic acid agents in the
(§3) 6-day and 11-day chick egg chorioallantoic (CAM) assay.

MMP-2 = MMP-2 activity by zymography, human microvascular endothelial cells; assay type: cell-based; conditions: for inhibition of MMP-2 activity: human microvascular endothelial cells, zymography; for inhibition of bFGF-induced increase in MMP-2 activity: with bFGF
Source text: Matrix metalloproteinases are an important group of zinc enzymes responsible for the degradation of the extracellular matrix components, such as collagen and proteoglycans. Currently, 16 family members have been identified. MMP family member differ from each other structurally by the presence or absence of domains that contribute to activities such as substrate specificity, inhibitor binding, matrix binding and cell surface localization (Powell and Matrisian, 1996). To determine if the phosphonic acid agents were effective inhibitors of the MMP's of endothelial cells, cells were incubated in the presence of the different agents for 48 hours. Tissue samples were taken and subjected to zymography. Tissue samples were placed in glass homogenizers in a three fold weight/volume of lysis buffer consisting of 50 mM Tris-HCL, pH=7.4, with 200 mM sodium chloride and 0.1% Triton X-100. The samples were homogenized and centrifuged at 1500 g for 20 min. The supernatant was immediately analyzed by zymography. Protein content of each sample was determined by a modified Lowry method.
MMP enzyme activity was detected using polyacrylamide gel eltrophoresis zymography. SDS-polyacrylamide gel electrophoresis (PAGE) was performed using 8% acrylamide gels containing 0.1% gelatin. The volume of test samples loaded was 15 μl. Electrophoresis was run at 4° C. at a constant voltage (100 volts). After electrophoresis, gels were incubated in Triton X-100 (2.5%) for 30 minutes to eliminate SDS, prior to being incubated overnight in 50 mM Tris HCL, pH7.5, containing 10 mM CaCl2 at 37° C. The gels were stained in 0.25% (W/v) Coomassie Brilliant Blue and destained in methanol:acetic acid:water (50:40:10). The clear zones in these gels indicates the presence of proteins with gelatinolytic activity. This method allows for identification of pro-metalloproteinases.Migration position of proteins and with standard molecular weight and supernatant from HT 1080 cells that express MMP-2 and MMP-9 were used as controls.

[4] = tested on: different cancer cell lines; test: MTT cell proliferation, different cancer cell lines; assay type: cell-based, human; conditions: cancer cell lines in vitro
[5] = tested on: chick chorioallantoic membrane (CAM); test: Chick egg chorioallantoic membrane (CAM) assay, 11-day, established vessels; assay type: in vivo; conditions: for 11-day CAM % Inhibition: 70 nmol or equimolar amount; for inhibitory activity in the 11-day CAM, in words: established vessels
Description: According to Ausprunk et al. (1974), capillary angiogenesis in the CAM is completed by day 11. Measurements of intercapillary distances are also consistent with the cessation of capillary growth after day 10. […] The implants were prepared as previously described by Gagliardi et al. (1992), implanted on day 11 and read on day 13.
as §1, §2, §3

[6] = tested on: human dermal Microvascular endothelial cells; test: Inhibition of bFGF-stimulated growth of human microvascular endothelial cells; assay type: cell-based; conditions: for pIC50: Homo sapiens, Endothelial cell, bFGF-stimulated, estimated from dose response curve
Description: Inhibition of cell growth was evaluated by measuring total protein and total DNA and the IC50 was estimated for each dose response curve.

Structure (SMILES)	effect on bFGF stimulation of endothelial cell growth [2]	effect on total protein content versus unstimulated control [2]	antiangiogenic activity relative to suramin [3]	inhibition in vivo at 70 nmol [3] [%]	other results
CN1CCCC1=O [N-methyl-2-pyrrolidone]	–	–	–	–	toxicity in Ames type assays and chronic exposure studies ([1]; Wells et al.): have not revealed any significant toxicity; irritation or sensitization potential ([1]; animal and human experiments): very little irritation or sensitization potential
O=C(Nc1cccc(C(=O)Nc2cccc(C(=O)Nc3cccc(P(=O)(O)O)c3)c2)c1)Nc1cccc(C(=O)Nc2cccc(C(=O)Nc3cccc(P(=O)(O)O)c3)c2)c1 [NF 050]	inhibited the stimulation of endothelial cell growth by bFGF	significantly reduced total protein content far below the unstimulated control endothelial cells	2 to 4 times	–	inhibition of MMP-2 activity (MMP-2): potent inhibitors of MMP-2 activity; inhibition of bFGF-induced increase in MMP-2 activity (MMP-2): inhibited the increase in MMP-2 activity induced by bFGF
O=C(Nc1cccc(C(=O)Nc2ccc(P(=O)(O)O)cc2)c1)Nc1cccc(C(=O)Nc2ccc(P(=O)(O)O)cc2)c1 [NF 067]	inhibited the stimulation of endothelial cell growth by bFGF	significantly reduced total protein content far below the unstimulated control endothelial cells	2 to 4 times	62	antiproliferative activity, in words [4]: very low antiproliferative activity; inhibition of angiogenesis in the 6-day CAM, in words [3]: very potent inhibitors of angiogenesis; ID50, dose that produces 50% inhibition of angiogenesis ([3]; CAM assay): 32 nmol; 11-day CAM % Inhibition [5]: 0%; inhibitory activity in the 11-day CAM, in words [5]: no significant inhibitory activity; pIC50 [6]: 4.71; potency relative to suramin, inhibition of endothelial cell growth ([6]; versus suramin, in vitro): 20 times
O=C(Nc1cccc(C(=O)Nc2cccc(P(=O)(O)O)c2)c1)Nc1cccc(C(=O)Nc2cccc(P(=O)(O)O)c2)c1 [NF 068]	–	–	–	0	antiangiogenic activity relative to suramin or between groups, in words ([3]; CAM assay): does not show any antiangiogenic activity
O=C(Nc1ccc(C(=O)Nc2cccc(P(=O)(O)O)c2)cc1)Nc1ccc(C(=O)Nc2cccc(P(=O)(O)O)c2)cc1 [NF 069]	inhibited the stimulation of endothelial cell growth by bFGF	significantly reduced total protein content far below the unstimulated control endothelial cells	4-8 times	66	inhibition of angiogenesis in the 6-day CAM, in words [3]: very potent inhibitors of angiogenesis; ID50, dose that produces 50% inhibition of angiogenesis ([3]; CAM assay): 9 nmol; 11-day CAM % Inhibition [5]: 0%; inhibitory activity in the 11-day CAM, in words [5]: no significant inhibitory activity; pIC50 [6]: 4.12
O=C(Nc1cccc(P(=O)(O)O)c1)Nc1cccc(P(=O)(O)O)c1 [NF 158]	–	–	–	0	–
O=C(Nc1ccc(P(=O)(O)O)cc1)Nc1ccc(P(=O)(O)O)cc1 [NF 161]	inhibited the stimulation of endothelial cell growth by bFGF	significantly reduced total protein content far below the unstimulated control endothelial cells	2 to 4 times	53	–
O=C(Nc1ccc(P(=O)(O)O)cc1)c1ccc(NC(=S)Nc2ccc(C(=O)Nc3ccc(P(=O)(O)O)cc3)cc2)cc1 [NF 162]	–	–	–	–	inhibition of MMP-2 activity (MMP-2): potent inhibitors of MMP-2 activity; inhibition of bFGF-induced increase in MMP-2 activity (MMP-2): inhibited the increase in MMP-2 activity induced by bFGF
O=C(Nc1ccc(P(=O)(O)O)cc1)c1cc(NC(=O)c2cccc([N+](=O)[O-])c2)cc(C(=O)Nc2ccc(P(=O)(O)O)cc2)c1 [NF 167]	inhibited the stimulation of endothelial cell growth by bFGF	significantly reduced total protein content far below the unstimulated control endothelial cells	2 to 4 times	–	–
O=C(Nc1ccc(OC(=O)P(=O)(O)O)cc1)Nc1ccc(OC(=O)P(=O)(O)O)cc1 [NF 392]	–	–	–	6	–
O=C(Nc1cccc(OC(=O)P(=O)(O)O)c1)Nc1cccc(OC(=O)P(=O)(O)O)c1 [NF 426]	–	–	–	39	–
O=C(Nc1ccc(NC(=O)P(=O)(O)O)cc1)Nc1ccc(NC(=O)P(=O)(O)O)cc1 [NF 428]	inhibited the stimulation of endothelial cell growth by bFGF	significantly reduced total protein content far below the unstimulated control endothelial cells	2 to 4 times	–	–
O=C(Nc1ccccc1OC(=O)P(=O)(O)O)Nc1ccccc1OC(=O)P(=O)(O)O [NF 473]	–	–	–	21	–
Cc1cc(NC(=O)Nc2ccc(OC(=O)P(=O)(O)O)c(C)c2)ccc1OC(=O)P(=O)(O)O [NF 474]	–	–	–	12	–
O=C(Nc1ccc(C(=O)Nc2ccc(P(=O)(O)O)cc2)cc1)Nc1ccc(C(=O)Nc2ccc(P(=O)(O)O)cc2)cc1 [NF 681]	inhibited the stimulation of endothelial cell growth by bFGF	significantly reduced total protein content far below the unstimulated control endothelial cells	4-8 times	100	inhibition of angiogenesis in the 6-day CAM, in words [3]: very potent inhibitors of angiogenesis; ID50, dose that produces 50% inhibition of angiogenesis ([3]; CAM assay): 2 nmol; 11-day CAM % Inhibition [5]: 0%; inhibitory activity in the 11-day CAM, in words [5]: no significant inhibitory activity; pIC50 [6]: 5.82; inhibition of MMP-2 activity (MMP-2): potent inhibitors of MMP-2 activity; inhibition of bFGF-induced increase in MMP-2 activity (MMP-2): inhibited the increase in MMP-2 activity induced by bFGF
